Reference: patent publication US20230097253A1, “NOVEL QUINAZOLINE COMPOUND AS THERAPEUTIC AGENT FOR METABOLIC DISORDERS” (BIOWAY., INC, priority 2020, published 2023)

Experiments:
DIAMOND™ mouse model = test: Efficacy in improving liver fibrosis (Sirius Red and Trichrome staining of liver tissue); assay type: in vivo; settings: DIAMOND mice liver tissue, 16 mg/kg oral once daily for 8 weeks, compared to control group (VC)
Protocol: The DIAMOND™ mouse model, an animal model prepared using a Western diet and sugar water, was used. The DIAMOND™ mice were induced with WDSW for 14 weeks, and 12 mice were used for the control group and 12 mice for the BW-3290 treatment group, and BW-3290 was orally administered at 16 mg/kg once daily for 8 weeks. An autopsy was performed at week 22, and blood collection and tissue storage were performed for the individuals in each group.
Staining was performed by Sirius Red staining and Trichrome (Masson's trichrome) staining, which are the staining methods that can confirm fibrosis, was stained using the liver tissue obtained after autopsy.

[1] = tested on: steatosis-induced Huh7 cells; test: Fat globule reducing effect by Oil-Red-O staining, compared to existing developed materials; assay type: cell-based; settings: FIG. 3
Protocol: In order to confirm the inhibition of fat accumulation in steatosis-induced liver cells, Huh7 cells were cultured in an incubator set at 37° C., 95% humidity, and 5% C02.
Additionally, Huh7 cells were proliferated to a confluency of 80-90% on a plate using a growth medium (Dulbecco's modified Eagle's medium (DMEM) supplemented with 10% fetal bovine serum (FBS), 100 U/ml of penicillin, and 100 μg/ml of streptomycin), and then used for the experiment.
In order to confirm the ability of BW-3290 to inhibit fat globule accumulation in steatosis-induced liver cells compared to the existing material under development, the liver cells were treated with palmitic acid (PA) bound to 2% BSA at a concentration of 250 μM except for the control group to induce steatosis, and then fat globules were stained through Oil-Red-O staining.
First, liver cells were cultured to grow 80-90% confluency in a 12 well plate, and the test material, BW-3290, were diluted in the culture medium that induced steatosis and the liver cells, except for the control group, were treated with 0.5 μM, 2.5 μM, 5 μM, and […].
Additionally, after removing the cell supernatant from the wells for Oil-Red-O staining, the washing process was performed twice with PBS.
Additionally, after washing, the resultant was fixed with 4% paraformaldehyde for 30 minutes. […]

[2] = Pharmacokinetic parameters after oral administration; assay type: in vivo, Sprague Dwaley (SD) rats; settings: male SD rats, 10 mg/kg, FIG. 16
Protocol: An experiment was performed to measure the pharmacokinetic parameters of BW-3290 using three male Sprague Dwaley (SD) rats. As for BW-3290, a formulation with a composition of 95% water containing 5% DMSO and 20% HPbCD was used, and was orally administered at a concentration of 10 mg/kg. Blood samples were collected from the jugular vein at time points of 0.25, 0.5, 1, 4, 8, 10, 12, and 24 hours. The blood samples collected were centrifuged for 15 minutes at 4° C. at 2,500×g to secure plasma. Bioanalysis for the measurement of pharmacokinetic parameters was analyzed by LC-MS/MS.

CC(C)C(Nc1ncnc2nc[nH]c12)c1nc2cccc(Cl)c2c(=O)n1-c1ccccc1 (stereo not shown) [BW-3290, 2-(1-((7H-purin-6-yl)amino)-2-methylpropyl)-5-chloro-3-phenylquinazolin-4(3H)-one]
fiberized portions stained in blue by Trichrome staining (DIAMOND™ mouse model): reduced | collagen and amyloid tissues stained in red by Sirius Red staining (DIAMOND™ mouse model; FIGS. 19 and 22): decreased | fat globule staining (Oil-Red-O) compared to PA ([1]; 250 μM PA, 0.5, 2.5, 5 and 10 μM, concentration dependent): lower level of fat globule staining compared to PA | staining of fat globules in comparison with PF-06409577 and elafibranor ([1]; 250 μM PA, at the same concentration of 10 μM and at lower concentrations): reduced | AUClast [2]: excellent | Cmax [2]: excellent | concentration after 12 hours after absorption ([2]; plasma): maintained to some extent
